Source: PubChem BioAssay (NCI)
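A five-concentration, 48-hour dose response in 96-well plates underlies each endpoint, interpolated linearly between surrounding concentrations. GI50 = concentration required for 50% inhibition of growth. Definition used: TGI = concentration required for complete inhibition of growth.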

Assays:
Experiment in all cases: DTP human tumour cell line panel, 48 h
HCT-116 colon = test system: HCT-116 colon
HT29 colon = test system: HT29 colon
MALME-3M melanoma = test system: MALME-3M melanoma
SF-539 CNS = test system: SF-539 CNS
SNB-19 CNS = test system: SNB-19 CNS
SR leukemia = test system: SR leukemia
UACC-62 melanoma = test system: UACC-62 melanoma

| SMILES | GI50 (HCT-116 colon) [µM] | TGI (HCT-116 colon) [µM] | GI50 (HT29 colon) [µM] | GI50 (MALME-3M melanoma) [µM] | TGI (MALME-3M melanoma) [µM] | GI50 (SF-539 CNS) [µM] | TGI (SF-539 CNS) [µM] | GI50 (SNB-19 CNS) [µM] | TGI (SNB-19 CNS) [µM] | GI50 (SR leukemia) [µM] | TGI (UACC-62 melanoma) [µM] | TGI (HT29 colon) [µM] | TGI (SR leukemia) [µM] | GI50 (UACC-62 melanoma) [µM] |
| --- | --- | --- | --- | --- | --- | --- | --- | --- | --- | --- | --- | --- | --- | --- |
| COc1cc(C(=O)/C(C)=C/c2c[nH]c3ccccc23)cc(OC)c1OC | 0.00359 | > 100 | 0.00402 | 14.2 | > 100 | 0.0028 | 0.0129 | 0.00406 | > 100 | 0.00333 | 14.1 | – | – | – |
| CC(=O)CC(=O)Nc1ccc2ccccc2c1 | – | > 100 | – | – | > 100 | – | > 100 | – | > 100 | – | > 100 | > 100 | > 100 | – |
| ClCc1cccc(Cn2cnc3c(NC45CC6CC(CC(C6)C4)C5)ncnc32)c1 | 12.6 | 30.4 | 23.9 | 14.6 | 32.4 | 16.9 | 32.4 | 17.2 | 44.2 | – | 36.5 | > 100 | 18.9 | 16.3 |
| COc1ccc([N+](=O)[O-])c2c(NCCCN(C)C)c3ccccc3nc12 | – | 0.978 | – | – | 0.336 | – | 1.49 | – | 3.51 | – | 0.285 | 1.22 | – | – |
| COc1cc(OC)cc(C2CC(=O)Nc3c2c(C)nn3-c2nc3ccccc3[nH]2)c1 (stereo not drawn) | 1.97 | 4.16 | 2.75 | 3.66 | > 100 | 2.96 | 9.43 | 4.13 | > 100 | – | 4.01 | 7.43 | – | 1.94 |
| CC(=O)c1c(C)[nH]c(-c2nc3ccc(N4CCN(C)CC4)cc3[nH]2)c1-c1ccc(OCC2CCOCC2)cc1 | 0.714 | 12.7 | 0.302 | 0.72 | 2.57 | 1.24 | 12.3 | 2.2 | 25.1 | 0.685 | 11.2 | 20.5 | 5.73 | 0.172 |
| COC(=O)c1cc2c(cc1Cl)SC(N(N(C)C)S(=O)(=O)c1ccc(Br)s1)=NS2(=O)=O | 26.6 | 73.6 | 21.3 | 24.9 | 74 | 21.2 | 51.5 | 21.2 | 58.4 | 13.3 | 50.6 | 56.9 | 35.4 | 21.4 |
| Nc1c(C(=O)c2ccc(Cl)cc2)sc(Nc2ccccc2)c1-c1nc2ccccc2s1 | 5.04 | > 100 | – | 0.751 | > 100 | 2.63 | > 100 | 4.56 | > 100 | 0.857 | > 100 | – | > 100 | 2.27 |
| O=c1ccn(C2OC(CO)C(O)C2F)c(=O)[nH]1 (stereo not drawn) | > 1000 | > 1000 | > 1000 | > 1000 | > 1000 | > 1000 | > 1000 | > 1000 | > 1000 | > 1000 | > 1000 | > 1000 | > 1000 | > 1000 |
